Like-named read-outs stand apart in the source and are kept apart here. One block for each compound: values may come before it.
Key:
[1] = parameters: method as in PMID 17210465; conditions: ref [31]; cited from earlier work
Aβ(1–42) aggregates = molecular target: T1, Aβ(1–42) aggregates (Homo sapiens, UniProt P05067); test: In vitro binding assay with Aβ(1–42) aggregates, competition with [125I]IMPY; conditions: mean ± SEM of three independent determinations; Cheng-Prusoff
T1 construct: Aβ(1–42) was purchased from the Peptide Institute (Osaka, Japan); purchased Peptide Institute (Osaka, Japan)
T1 sequence (P05067 672-713 limits assumed): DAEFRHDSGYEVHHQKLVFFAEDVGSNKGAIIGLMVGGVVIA
Experimental: Aggregation was carried out by gently dissolving the peptide (0.25 mg/mL) in a buffer solution (pH 7.4) containing 10 mM sodium phosphate and 1 mM EDTA. […] The mixture was then filtered through Whatman GF/B filters using a Brandel M-24 cell harvester, and the radioactivity of the filters containing the bound ^125I ligand was measured in a γ counter. Values for the half-maximal inhibitory concentration (IC50) were determined from displacement curves of three independent experiments using GraphPad Prism 5.0, and those for the inhibition constant (Ki) were calculated using the Cheng-Prusoff equation [26]: […]

Aβ plaques [2] = test: In vitro autoradiography using human AD brain sections; type: binding; conditions: postmortem human AD brain sections, 1 h at room temperature
Experimental: Postmortem brain tissues from an anonymous autopsy-confirmed case of AD (person) were obtained from the Graduate School of Medicine, Kyoto University. Six-micrometer-thick serial sections of paraffin-embedded blocks were used for in vitro autoradiography. The sections were incubated with ^125I-labeled tracers (444 kBq/50 µL) for 1 h at room temperature, then dipped in saturated Li2CO3 in 40% EtOH (two 2-min washes), washed with 40% EtOH (one 2-min wash), and rinsed with water for 30 s. After drying, the ^125I-labeled sections were exposed to a BAS imaging plate (Fuji Film) overnight. Autoradiographic images were obtained using a BAS5000 scanner system (Fuji Film). After autoradiographic examination, the same sections were immunostained using an amyloid β-protein immunohistochemical staining kit (Wako Pure Chemical Industries, Ltd.).

[3] = Biodistribution in normal mice; type: in vivo, ddY mice; conditions: for time of peak brain uptake: postinjection
Experimental: While under anesthesia with 2% isoflurane, ddY mice were injected directly into a tail vein with 100 µL of 10% EtOH containing ^125I-labeled pyridyl benzofuran derivatives (37 kBq). The mice (male, n = 5 for each time point) were sacrificed at 2, 10, 30, and 60 min postinjection. The organs of interest were removed and weighed, and radioactivity was measured with an automatic gamma counter (COBRAII; Packard). Percentage dose per organ was calculated by comparing the tissue counts to suitably diluted aliquots of the injected material. The %dose/g of samples was calculated by comparing the sample counts with the count of the diluted initial dose.

Aβ plaques [4] = molecular target: T2, Aβ plaques (Homo sapiens, UniProt P05067); test: Small-animal SPECT/CT in Tg2576 and wild-type mice; type: in vivo, Tg2576 transgenic mice; conditions: average ± SD
T2 sequence (P05067 672-711 limits assumed): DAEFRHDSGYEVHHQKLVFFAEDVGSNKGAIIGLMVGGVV
Experimental: Dynamic SPECT scans were performed on a dedicated small-animal SPECT scanner (FX3300, Gamma Medica-Ideas). Tg2576 transgenic mice (28 months, female, n = 3) and wild-type mice (28 months, female, n = 3) were used as an Alzheimer’s model and an age-matched control, respectively. Briefly, the animals were initially anesthetized with 2% isoflurane. When fully anesthetized, an animal was placed on the scanner bed, with a nose cone used to maintain anesthesia with 2% isoflurane throughout the experiment. [^123I]8 (20.5–26.5 MBq) in 10% aqueous EtOH solution containing 0.1% Tween80 was injected into a tail vein. Dynamic data were acquired over a period of 60 min after the injection, followed by the acquisition of CT data over a period of 5 min. The SPECT data were reconstructed using a 3-dimensional ordered subsets expectation maximization (3D OSEM) algorithm (5 iteration, 8 subsets). The SPECT scan time was sorted by a 30-s time frame in each 1-min interval (total, 60 frames for a total scan time of 60 min). […] For statistical analyses, regions of interest (ROIs) were manually placed over the frontal cortex (FR) and cerebellum (CE) on the summed SPECT images of [^123I]8 in Tg2576 (n = 3) and wild-type (n = 3) mice. Identification of anatomical structures was guided by the stereotaxic mouse brain atlas. […]

[5] = In vitro stability in mouse plasma; type: in vitro ADME; conditions: incubation 1 h at 37°C, RP-HPLC
Experimental: [^125I]8 (11 kBq, […]) was added to the mouse plasma ([…]), and the plasma samples were incubated at 37°C for 1 h. After incubation, plasma samples were mixed with equal volumes of acetonitrile followed by centrifugation at 4,500 rpm for 10 min to remove the denatured proteins. The supernatant was filtrated using a 0.45 µm filter (Millipore; Billerica, MA, USA). Then, the filtrate was analyzed by RP-HPLC.

Aβ plaques [6] = molecular target: T2, Aβ plaques; test: Ex vivo autoradiography of transgenic mouse brain; conditions: brains of Tg2576 mice after SPECT/CT; not in the wild-type control
Text: The animals were killed by decapitation after the SPECT analysis. Brains were immediately removed and frozen in a dry ice/hexane bath. Sections of 20 µm were cut and exposed to a BAS imaging plate (Fuji Film, Tokyo, Japan) overnight. Ex vivo film autoradiograms were thus obtained. After autoradiographic examination, the same sections were stained by thioflavin-S to confirm the presence of Aβ plaques. For staining with thioflavin-S, sections were immersed in a 0.125% thioflavin-S solution containing 50% EtOH for 5 min and washed in 50% EtOH. After drying, the sections were examined using a microscope (Eclipse 80i; Nikon) equipped with a B-2A filter set (excitation, 450–490 nm; diachronic mirror, 505 nm; long-pass filter, 520 nm).

[7] = In vivo stability in normal mice (intact form in plasma by RP-HPLC); parameters: species or system ddY mice; conditions: 30 min postinjection, i.v.
Experimental: [^125I]8 (0.11 MBq, 100 µL) was injected into the tail vein of ddY mice. The mice were sacrificed at 2, 10, and 30 min after the injection (male, n = 3 for each time point). The blood samples were centrifuged at 3,500 rpm for 10 min to separate plasma. Plasma samples were mixed with equal volumes of acetonitrile followed by centrifugation at 4,500 rpm for 10 min to remove the denatured proteins. The supernatant was filtrated using 0.45 µm filter (Millipore; Billerica, MA, USA). Then, the filtrate was analyzed by RP-HPLC.

SMILES: CNc1ccc(/C=C/c2ccc(OCCOCCOCC[18F])nc2)cc1 [[^18F]AV-45, (E)-4-(2-(6-(2-(2-(2-[^18F]fluoroethoxy)ethoxy)ethoxy)pyridin-3-yl)vinyl)-N-methylaniline]
brain2min/brain60 min ratio [1]: 3.8

Ki (Aβ(1–42) aggregates): 10.3 ± 1.48 nM
time of peak brain uptake ([3]; i.v.): 10 min
brain2min/brain60 min ratio ([3]; washout from the brain): 1.30
SMILES: Nc1ccc(-c2cc3cc(I)ccc3o2)cn1 [Compound 7, 5-(5-Iodobenzofuran-2-yl)pyridin-2-amine]
in vitro autoradiography of AD brain sections (Aβ plaques [2]): nonspecific binding in white matter

Ki (Aβ(1–42) aggregates): 2.36 ± 0.53 nM
time of peak brain uptake ([3]; i.v.): 10 min
SMILES: CN(C)c1ccc(-c2cc3cc(I)ccc3o2)cn1 [Compound 9, 5-(5-Iodobenzofuran-2-yl)-N,N-dimethylpyridin-2-amine]

Ki (Aβ(1–42) aggregates): 2.94 ± 0.22 nM
mean FR/CE ratio (frontal cortex to cerebellum), SPECT (Aβ plaques [4]; Tg2576 mice (n = 3)): 1.34±0.07
mean FR/CE ratio (frontal cortex to cerebellum), SPECT (Aβ plaques [4]; wild-type mice (n = 3)): 1.01±0.03
radioactivity existing as intact form in mouse plasma [5]: 77.4%
ex vivo autoradiography, labeling of Aβ plaques (Aβ plaques [6]): extensive labeling of Aβ plaques
percent of the intact form in plasma after injection [7]: 20.7%
brain radioactivity at 60 min postinjection ([3]; i.v., 60 min): 1.30 %ID/g
time of peak brain uptake ([3]; i.v.): 2 min
SMILES: CNc1ccc(-c2cc3cc(I)ccc3o2)cn1 [Compound 8, 5-(5-Iodobenzofuran-2-yl)-N-methylpyridin-2-amine]

Source: publication PMC3772825, “Development of Novel ^123I-Labeled Pyridyl Benzofuran Derivatives for SPECT Imaging of β-Amyloid Plaques in Alzheimer’s Disease” (PLoS ONE, 2013)
